Assay results: ChEMBL document CHEMBL1139296, “Pleuromutilin derivatives having a purine ring. Part 2: influence of the central spacer on the antibacterial activity against Gram-positive pathogens” (2009)

How the values were obtained:
Assay type in all cases: functional
Staphylococcus aureus [1] = assay: Antimicrobial activity against methicillin-susceptible Staphylococcus aureus infected mouse assessed as survival rate administered iv after 1 hr of infection
Haemophilus influenzae = assay: Antimicrobial activity against Haemophilus influenzae TH13 by NCCLS method
Enterococcus faecium = assay: Antimicrobial activity against vancomycin-resistant Enterococcus faecium KU1778 by NCCLS method
Streptococcus pneumoniae [2] = assay: Antimicrobial activity against penicillin-resistant Streptococcus pneumoniae KT2524 by NCCLS method
Staphylococcus aureus [3] = assay: Antimicrobial activity against methicillin-susceptible Staphylococcus aureus Smith by NCCLS method
Streptococcus pyogenes = assay: Antimicrobial activity against Streptococcus pyogenes […] by NCCLS method
Staphylococcus aureus [4] = assay: Antimicrobial activity against methicillin-resistant Staphylococcus aureus KMP9
Moraxella catarrhalis = assay: Antimicrobial activity against Moraxella catarrhalis K1209 by NCCLS method
Streptococcus pneumoniae [5] = assay: Antimicrobial activity against penicillin-susceptible Streptococcus pneumoniae ATCC 49619 by NCCLS method

Row | SMILES | ED50 (Staphylococcus aureus [1]) [mg/kg] | MIC (Haemophilus influenzae) [µg/mL] | MIC (Enterococcus faecium) [µg/mL] | MIC (Streptococcus pneumoniae [2]) [µg/mL] | MIC (Staphylococcus aureus [3]) [µg/mL] | MIC (Streptococcus pyogenes) [µg/mL] | MIC (Staphylococcus aureus [4]) [µg/mL] | MIC (Moraxella catarrhalis) [µg/mL] | MIC (Streptococcus pneumoniae [5]) [µg/mL]
1 | C=C[C@]1(C)C[C@@H](OC(=O)CN2CCN(C(=O)CCn3cnc4c(N5CCC(N)C5)ncnc43)CC2)[C@]2(C)[C@H](C)CC[C@]3(CCC(=O)[C@@H]32)[C@@H](C)[C@@H]1O.Cl.Cl (some centres not stated) | 0.8 | 4 | 0.5 | 0.063 | 0.25 | 0.032 | 0.5 | 0.25 | 0.063
2 | C=C[C@]1(C)C[C@@H](OC(=O)CN(C)CCN(C)C(=O)CCn2cnc3c(N4CCC(N)C4)ncnc32)[C@]2(C)[C@H](C)CC[C@]3(CCC(=O)[C@@H]32)[C@@H](C)[C@@H]1O.Cl.Cl (some centres not stated) | > 3.13 | 8 | 1 | 0.125 | 1 | 0.063 | 4 | 0.25 | 0.063
3 | C=C[C@]1(C)C[C@@H](OC(=O)CSC2CCCN(C(=O)CCn3cnc4c(N5CCNCC5)nc(N)nc43)C2)[C@]2(C)[C@H](C)CC[C@]3(CCC(=O)[C@@H]32)[C@@H](C)[C@@H]1O.Cl (some centres not stated) | 3.13 | 2 | 0.25 | 0.032 | 0.5 | 0.016 | 1 | 0.125 | 0.032
4 | C=C[C@]1(C)C[C@@H](OC(=O)CSCC2CN(C(=O)CCn3cnc4c(N5CCNCC5)nc(N)nc43)CCO2)[C@]2(C)[C@H](C)CC[C@]3(CCC(=O)[C@@H]32)[C@@H](C)[C@@H]1O.Cl (some centres not stated) | 4.81 | 8 | 0.5 | 0.125 | 1 | 0.032 | 2 | 0.25 | 0.063
5 | C=C[C@]1(C)C[C@@H](OC(=O)CS[C@@H]2CCN(C(=O)CCn3cnc4c(N5CCNCC5)nc(N)nc43)C2)[C@]2(C)[C@H](C)CC[C@]3(CCC(=O)[C@@H]32)[C@@H](C)[C@@H]1O.Cl | 1.28 | 2 | 0.5 | 0.125 | 0.05 | 0.032 | 2 | 0.25 | 0.063
6 | C=C[C@]1(C)C[C@@H](OC(=O)CSCCN(C)C(=O)CCn2cnc3c(N4CCC(N)C4)ncnc32)[C@]2(C)[C@H](C)CC[C@]3(CCC(=O)[C@@H]32)[C@@H](C)[C@@H]1O.Cl (some centres not stated) | 1.76 | 2 | 0.063 | 0.016 | 0.25 | ≤ 0.004 | 0.5 | 0.125 | 0.016
7 | C=C[C@]1(C)C[C@@H](OC(=O)CSC2CCN(C(=O)CCn3cnc4c(N5CCNCC5)nc(N)nc43)CC2)[C@]2(C)[C@H](C)CC[C@]3(CCC(=O)[C@@H]32)[C@@H](C)[C@@H]1O.Cl | 1.86 | 1 | 0.125 | 0.063 | 0.25 | 0.032 | 0.5 | 0.25 | 0.063
8 | CC[C@]1(C)C[C@@H](OC(=O)CS(=O)(=O)C2CCN(C(=O)CCn3cnc4c(N5CCC(N)C5)ncnc43)CC2)[C@]2(C)[C@H](C)CC[C@]3(CCC(=O)[C@@H]32)[C@@H](C)[C@@H]1O.Cl (some centres not stated) | 1.79 | 4 | 1 | 0.125 | 0.5 | 0.032 | 2 | 0.125 | 0.063
9 | C=C[C@]1(C)C[C@@H](OC(=O)CS[C@H]2CCN(C(=O)CCn3cnc4c(N5CCNCC5)nc(N)nc43)C2)[C@]2(C)[C@H](C)CC[C@]3(CCC(=O)[C@@H]32)[C@@H](C)[C@@H]1O.Cl | 3.16 | 2 | 0.25 | 0.125 | 0.5 | 0.016 | 1 | 0.25 | 0.063
10 | C=C[C@]1(C)C[C@@H](OC(=O)CNC2CCN(C(=O)CCn3cnc4c(N5CCC(N)C5)ncnc43)CC2)[C@]2(C)[C@H](C)CC[C@]3(CCC(=O)[C@@H]32)[C@@H](C)[C@@H]1O.Cl (some centres not stated) | 1.75 | 2 | 0.5 | 0.125 | 0.25 | 0.063 | 2 | 0.25 | 0.125
11 | C=C[C@]1(C)C[C@@H](OC(=O)CSCCCN(C)C(=O)CCn2cnc3c(N4CCC(N)C4)ncnc32)[C@]2(C)[C@H](C)CC[C@]3(CCC(=O)[C@@H]32)[C@@H](C)[C@@H]1O.Cl (some centres not stated) | 0.86 | 1 | 0.063 | 0.016 | 0.125 | 0.008 | 0.25 | 0.063 | 0.016
12 | C=C[C@]1(C)C[C@@H](OC(=O)CSCC2CCN(C(=O)CCn3cnc4c(N5CCNCC5)nc(N)nc43)CC2)[C@]2(C)[C@H](C)CC[C@]3(CCC(=O)[C@@H]32)[C@@H](C)[C@@H]1O.Cl | 2.77 | 4 | 0.063 | 0.032 | 0.25 | 0.016 | 0.5 | 0.125 | 0.032
13 | C=C[C@]1(C)C[C@@H](OC(=O)CSC2CCN(C(=O)CCn3cnc4c(N5CCC(N)C5)ncnc43)CC2)[C@]2(C)[C@H](C)CC[C@]3(CCC(=O)[C@@H]32)[C@@H](C)[C@@H]1O.Cl (some centres not stated) | 1.47 | 1 | 0.032 | 0.032 | 0.063 | 0.016 | 0.125 | 0.032 | 0.016
14 | CC[C@]1(C)C[C@@H](OC(=O)CSC2CCN(C(=O)CCn3cnc4c(N5CCNCC5)nc(N)nc43)CC2)[C@]2(C)[C@H](C)CC[C@]3(CCC(=O)[C@@H]32)[C@@H](C)[C@@H]1O.Cl | 1.66 | 1 | 0.125 | 0.063 | 0.25 | 0.032 | 0.25 | 0.125 | 0.063
15 | C=C[C@]1(C)C[C@@H](OC(=O)CSC2CN(C(=O)CCn3cnc4c(N5CCNCC5)nc(N)nc43)C2)[C@]2(C)[C@H](C)CC[C@]3(CCC(=O)[C@@H]32)[C@@H](C)[C@@H]1O.Cl | 4.07 | 2 | 0.5 | 0.25 | 0.5 | ≤ 0.004 | 2 | 0.125 | 0.125
16 | C=C[C@]1(C)C[C@@H](OC(=O)CSC2CCCN(C(=O)CCn3cnc4c(N5CCC(N)C5)ncnc43)C2)[C@]2(C)[C@H](C)CC[C@]3(CCC(=O)[C@@H]32)[C@@H](C)[C@@H]1O.Cl (some centres not stated) | 2.02 | 2 | 0.063 | 0.016 | 0.25 | 0.008 | 0.5 | 0.063 | 0.016
17 | C=C[C@]1(C)C[C@@H](OC(=O)CSC2CCN(C(=O)CCn3cnc4c(N5CCNCC5)nc(N)nc43)C2)[C@]2(C)[C@H](C)CC[C@]3(CCC(=O)[C@@H]32)[C@@H](C)[C@@H]1O.Cl (some centres not stated) | 2.61 | 1 | 0.25 | 0.125 | 0.25 | ≤ 0.004 | 1 | 0.125 | 0.063
18 | CC[C@]1(C)C[C@@H](OC(=O)COC2CCN(C(=O)CCn3cnc4c(N5CCC(N)C5)ncnc43)CC2)[C@]2(C)[C@H](C)CC[C@]3(CCC(=O)[C@@H]32)[C@@H](C)[C@@H]1O.Cl (some centres not stated) | 2.04 | 4 | 0.125 | 0.063 | 0.25 | 0.032 | 0.5 | 0.125 | 0.032
